These results are taken from patent US12630565B2, “DNA-dependent protein kinase inhibitor” (DIZAL (JIANGSU) PHARMACEUTICAL CO., LTD., priority 2019, dated 2026).

Series [1] concerns Rat hepatocyte. In words: Metabolic stability assay (rat hepatocyte Clint). The conditions noted are these: 1 μM compound, cryopreserved hepatocytes 1 million cells per mL. The class given is in vitro ADME. The method in brief: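 Compound at 1 μM incubated with cryopreserved rat hepatocytes, 1 million cells/mL, sampled 0–120 min with acetonitrile quench and LC-MS/MS quantitation. CLint (μL/min/E6) derived from elimination rate constant and half-life of parent disappearance, scaled by cell concentration.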

The target of series [2] is Full length human DNAPK protein (Homo sapiens, UniProt P78527). In words: DNA-PK enzymatic assay (TR-FRET). The conditions noted are these: 10 μM ATP, 1.6 μM peptide substrate. The class given is biochemical.
A short description of series [3]: Metabolic stability assay (human microsomal Clint). The series is classed as in vitro ADME. Conditions: 1 mg/mL microsomes, 1 mM NADPH, 37° C.; for microsomal CLint at 1 μM: human, pooled human liver microsomes, pH 7.4, 1 μM compound; for Human liver microsomal CLint: 1 μM compound. The method in brief:
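Compound (1 μM) incubated at 37 °C with pooled human liver microsomes (1 mg/mL) and 1 mM NADPH in 100 mM phosphate, pH 7.4. Samples quenched in acetonitrile at 0–30 min and analysed by LC-MS/MS for parent loss. CLint reported in μl/min/mg.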
For orientation: Liver microsomes are a subcellular fraction often used to study metabolism.

Series [4] can be described thus: Brain-blood-barrier penetration assay (short oral absorption model, Kp,uu). The series is classed as in vivo. The conditions noted are these: male, Han Wistar, rat, brain and plasma, po, 10 mg/kg, male Han Wistar rats, oral 10 mg/kg in 1% methylcellulose; AUC(brain)/AUC(plasma)×(fu,brain/fu.plasma). How it is done:
It is believed that Kp,uu, the relationship between concentrations of unbound drug in brain and in plasma, is the key to prediction of CNS action and should be the main parameter measured and optimized for in drug discovery (Di L et al., Journal of Medicinal Chemistry [2013], 56: 2-12).
In vitro plasma and brain binding assay was carried out by using equilibrium dialysis method with semi-permeable membrane. Plasma and diluted brain homogenate (1:4 with DPBS pH7.4) were spiked with 5 μM test compound (in triplicate) and dialyzed against equal volume of 150 μL 100 mM PBS buffer (pH7.4) at 37° C. for 18 hours in a slowly rotated plate. At the end of incubation, a 50 μL aliquot from the receiver side and a 5 μL from the donor chamber were taken. The 5 μL sample was further diluted with 45 μL of blank plasma or brain homogenate. Paired samples were matrix-matched with either buffer or blank plasma/brain homogenate and mixed for 2 min, and then precipitated with 150 μL cold acetonitrile with 100 ng/mL tolbutamide as internal standard. After centrifuging at 4000 rpm for 20 min, supernatant was diluted with 0.1% formic acid aqueous solution and analyzed for LC/MS/MS (API 4000, Applied Biosystems, Foster City). Unbound fraction (fu) of test compound in the brain homogenate and diluted plasma were calculated by the ratio of the buffer side response to the brain homogenate/plasma side response, and unbound fraction (fu,pl and fu,br) of test compound in non-diluted plasma and tissue were calculated from measured fu in homogenate and plasma with the following equation: fu,bl (fu,br)=(1/D)/[(1/fu−1)+1/D)]. D is dilution factor.
A Short oral absorption (SOA) model is an in-vivo screening model to identify brain penetration of a compound. Six male Han Wistar rats purchased from Beijing Vital River were orally dosed with the compound at 10 mg/kg in 1% methylcellulose At 0.5, 1, 2, 4, 7 and 16 hour post-dose, cerebral spinal fluid (CSF) was collected from cisterna magna. Plasma samples will be processed for plasma by centrifugation at approximately 4° C., 3,000 g within half an hour of collection. Plasma samples will be removed to a labeled tube and stored at −80 degree until analysis. Brain tissue was harvested and homogenized in 3× volume of 100 mM phosphate buffered saline (pH7.4). All samples were stored at ˜−70° C. prior to LC/MS/MS analysis.
Standards were prepared by spiking blank plasma, brain homogenate and artificial CSF covering 0.5 to 500 ng/mL. Homogenized brain tissue along with plasma samples were precipitated by adding 3-fold volume of cold acetonitrile containing internal standard (40 ng/mL Dexamethasone and 40 ng/mL Diclofenac), and 10 μL of CSF samples were precipitated with 100 μL of cold acetonitrile containing internal standard. After 2 min vortex and 5 min centrifugation at 14,000 rpm, supernatant was analyzed by LC/MS/MS (API 4000, Applied Biosystems, Foster City). Two sets of standard curves were run at the beginning and end of each batch from plasma sample analysis. For brain and CSF samples, one standard curve was analyzed along with test samples.
Total brain levels, expressed as brain/plasma ratio (Kp) were measured by AUCbrain/AUCplasma in rodents after oral administration. Free fraction of test compound in biological matrix was determined by in vitro plasma and brain binding assay. Kp,uu was calculated by the following equation: Kp,uu=AUC (brain)/AUC (plasma)×(fu,brain/fu.plasma).

In series [5] the test system is MDR1, BCRP. In words: MDCKII-MDR1-BCRP efflux assay. The class given is in vitro ADME. Conditions: dog, pH 7.4, 5 μM compound, HBSS pH 7.4, read-out: MDCK-Mdr1-BCRP efflux ratio. The method in brief:
(§1)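 Bidirectional (A-B, B-A) transport of 5 μM compound across MDCKII-MDR1-BCRP monolayers in HBSS, 25 mM HEPES pH 7.4, ~37° C. for 120 min, triplicate; donor and receiver concentrations measured, monolayer integrity checked with Lucifer yellow. Papp and efflux ratio calculated.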

Series [6] concerns MDCKII-MDR1-BCRP cell monolayers. In words: MDCKII-MDR1-BCRP efflux assay. Conditions: 5 μM compound, 120 min, HBSS pH 7.4. The class given is in vitro ADME. The method in brief: as §1

Structures are written as SMILES.

As to `CO[C@H]1CC[C@H](n2nc(C)c3cnc(Nc4cn5ncnc5cc4C)nc32)CC1` [Example 24, 1-((1r,4r)-4-methoxycyclohexyl)-3-methyl-N-(7-methyl-[1,2,4]triazolo[1,5-a]pyridin-6-yl)-1H-pyrazolo[3,4-d]pyrimidin-6-amine], the “Rat hepatocyte CLint (μl/min/10^−6 cells)” value (“Rat hepatocyte CLint” below) in series [1] is 5.5 μl/min/10^−6 cells. For the same compound, the IC50 in series [2] stood at 0.4 nM. For the same compound, in series [3], the microsomal CLint at 1 μM came out at 72.3 µL/min/mg. Further, the Kp uu in series [4] stood at 0.1. Further, in series [5], the efflux ratio at 120 min, 5 μM came to 1.4.
As to `COC1CCC(n2nc(C)c3cnc(Nc4cn5ncnc5cc4C)nc32)C1` (single isomer, unassigned) [Example 110, 1-(3-methoxycyclopentyl)-3-methyl-N-(7-methyl-[1,2,4]triazolo[1,5-a]pyridin-6-yl)-1H-pyrazolo[3,4-d]pyrimidin-6-amine], the “Rat hepatocyte CLint” value in series [1] was determined as 17.4 μl/min/10^−6 cells. This compound had an IC50 in series [2] of 1.8 nM. Also, in series [3], the “Human liver microsomal CLint” value is 64.8 µL/min/mg. In series [4], this compound gave a Kp uu of 0.25. In series [6], the MDCK-Mdr1-BCRP efflux ratio is 1.7.
As to `Cc1cc2ncnn2cc1Nc1ncc2c(C)nn([C@H]3C[C@H]4CC[C@@H](C3)O4)c2n1` [Example 106, 1-((1R,3r,5S)-8-oxabicyclo[3.2.1]octan-3-yl)-3-methyl-N-(7-methyl-[1,2,4]triazolo[1,5-a]pyridin-6-yl)-1H-pyrazolo[3,4-d]pyrimidin-6-amine], in series [1], the “Rat hepatocyte CLint” value was 17.6 μl/min/10^−6 cells. Besides, half-maximal inhibition in series [2] (IC50) required 0.9 nM. Also, the microsomal CLint at 1 μM in series [3] was 68.9 µL/min/mg. In series [4], this compound returned a Kp uu of 0.19. Moreover, the efflux ratio at 120 min, 5 μM in series [5] was found to be 2.1.
Turning to `Cc1cc2ncnn2cc1Nc1ncc2c(C)nn(C3CCC(F)(F)CC3)c2n1` [Example 21, 1-(4,4-difluorocyclohexyl)-3-methyl-N-(7-methyl-[1,2,4]triazolo[1,5-a]pyridin-6-yl)-1H-pyrazolo[3,4-d]pyrimidin-6-amine], in series [1], the “Rat hepatocyte CLint” value amounted to 10.0 μl/min/10^−6 cells. Besides, half-maximal inhibition in series [2] (IC50) was put at 1.4 nM. In series [3], this compound came in with a microsomal CLint at 1 μM of 102 µL/min/mg. This compound came in with a Kp uu in series [4] of 0.08. Further, in series [5], the efflux ratio at 120 min, 5 μM is 1.3.
`Cc1cc2ncnn2cc1Nc1ncc2c(n1)c(C1CCOCC1)nn2C` [Example 1, 1-methyl-N-(7-methyl-[1,2,4]triazolo[1,5-a]pyridin-6-yl)-3-(tetrahydro-2H-pyran-4-yl)-1H-pyrazolo[4,3-d]pyrimidin-5-amine]: the “Rat hepatocyte CLint” value in series [1] turned out to be 5.4 μl/min/10^−6 cells. This compound also returned an IC50 in series [2] of 0.8 nM. The microsomal CLint at 1 μM in series [3] amounted to 19.8 µL/min/mg. The Kp uu in series [4] stood at 0.17. Further, the efflux ratio at 120 min, 5 μM in series [5] came to 5.9.
Regarding `Cc1cc2ncnn2cc1Nc1ncc2c(C)nn([C@@H]3C[C@H]4CC[C@@H](C3)O4)c2n1` [Example 107, 1-((1R,3s,5S)-8-oxabicyclo[3.2.1]octan-3-yl)-3-methyl-N-(7-methyl-[1,2,4]triazolo[1,5-a]pyridin-6-yl)-1H-pyrazolo[3,4-d]pyrimidin-6-amine], the “Rat hepatocyte CLint” value in series [1] amounted to 4.5 μl/min/10^−6 cells. Moreover, in series [2], half-maximal inhibition (IC50) was put at 1.3 nM. The microsomal CLint at 1 μM in series [3] amounted to 13.9 µL/min/mg. In series [4], this compound registered a Kp uu of 0.3. Further, the efflux ratio at 120 min, 5 μM in series [5] was determined as 2.7.
Turning to `Cc1cc2ncnn2cc1Nc1ncc2c(C)nn(C3CCOCC3C)c2n1` (single isomer, unassigned) [Example 114, 3-methyl-N-(7-methyl-[1,2,4]triazolo[1,5-a]pyridin-6-yl)-1-(3-methyltetrahydro-2H-pyran-4-yl)-1H-pyrazolo[3,4-d]pyrimidin-6-amine], the “Rat hepatocyte CLint” value in series [1] came to 8.5 μl/min/10^−6 cells. This compound yielded an IC50 in series [2] of 1.7 nM. Also, in series [3], the “Human liver microsomal CLint” value worked out at 50.4 µL/min/mg. In addition, the MDCK-Mdr1-BCRP efflux ratio in series [6] was 2.
For `CO[C@H]1CC[C@H](c2nn(C)c3cnc(Nc4cn5ncnc5cc4C)nc32)CC1` [Example 7, 3-((1r,4r)-4-methoxycyclohexyl)-1-methyl-N-(7-methyl-[1,2,4]triazolo[1,5-a]pyridin-6-yl)-1H-pyrazolo[4,3-d]pyrimidin-5-amine], the “Rat hepatocyte CLint” value in series [1] was found to be 7.5 μl/min/10^−6 cells. In addition, in series [2], the IC50 stood at 0.8 nM. Besides, in series [3], the microsomal CLint at 1 μM stood at 75.1 µL/min/mg. Moreover, in series [4], the Kp uu was 0.1. In addition, the efflux ratio at 120 min, 5 μM in series [5] was 2.3.
For `Cc1cc2nccn2cc1Nc1ncc2c(n1)c(C1CCOCC1)nn2C` [Example 2, 1-methyl-N-(7-methylimidazo[1,2-a]pyridin-6-yl)-3-(tetrahydro-2H-pyran-4-yl)-1H-pyrazolo[4,3-d]pyrimidin-5-amine], in that order: 3.0 μl/min/10^−6 cells, 1.4 nM, 12.7 µL/min/mg, 0.14 and 3.3.
For `COC1CCC(n2nc(C)c3cnc(Nc4cn5ncnc5cc4C)nc32)C1` (single isomer, unassigned) [Example 109, 1-(3-methoxycyclopentyl)-3-methyl-N-(7-methyl-[1,2,4]triazolo[1,5-a]pyridin-6-yl)-1H-pyrazolo[3,4-d]pyrimidin-6-amine], the “Rat hepatocyte CLint” value in series [1] is recorded as 11.9 μl/min/10^−6 cells. In series [2], this compound came in with an IC50 of 4 nM. Besides, the “Human liver microsomal CLint” value in series [3] was 87.2 µL/min/mg. In addition, the MDCK-Mdr1-BCRP efflux ratio in series [6] was 2.
Regarding `Cc1cc2ncnn2cc1Nc1ncc2c(C)nn(C3CCOCC3C)c2n1` (single isomer, unassigned) [Example 113, 3-methyl-N-(7-methyl-[1,2,4]triazolo[1,5-a]pyridin-6-yl)-1-(3-methyltetrahydro-2H-pyran-4-yl)-1H-pyrazolo[3,4-d]pyrimidin-6-amine], the “Rat hepatocyte CLint” value in series [1] was found to be 8.2 μl/min/10^−6 cells. In series [2], this compound came in with an IC50 of 3.2 nM. Further, the “Human liver microsomal CLint” value in series [3] is 60.5 µL/min/mg. Also, the MDCK-Mdr1-BCRP efflux ratio in series [6] was determined as 4.
As for `Cc1cc2ncnn2cc1Nc1ncc2c(C)nn(C3CCOC(C)C3)c2n1` (single isomer, unassigned) [Example 36, 3-methyl-N-(7-methyl-[1,2,4]triazolo[1,5-a]pyridin-6-yl)-1-(2-methyltetrahydro-2H-pyran-4-yl)-1H-pyrazolo[3,4-d]pyrimidin-6-amine], the “Rat hepatocyte CLint” value in series [1] amounted to 11.6 μl/min/10^−6 cells. For the same compound, the midpoint of inhibition in series [2], the IC50, lay at 1.4 nM. Besides, the “Human liver microsomal CLint” value in series [3] amounted to 51.5 µL/min/mg. The MDCK-Mdr1-BCRP efflux ratio in series [6] is 2.1.

As usually defined, the IC50 is the midpoint of a concentration-inhibition curve. Read a low IC50 as greater potency. Usually microsomal CLint stands for the capacity of the preparation to metabolise the compound, expressed as a volume cleared per time.
